According to ChEMBL document CHEMBL1201862, “PubChem BioAssay data set” (2004):
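Where inhibition never reached the appropriate level, the endpoint shown equals the highest concentration tested. Otherwise, values were interpolated linearly from a five-concentration, 48-hour dose response in 96-well plates. At the GI50, growth is halved.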 Active and inactive are the calls of the source. Rule as the data show it: active = GI50 up to about 1.1 µM and inactive = higher.

Key:
Assay in all cases: growth of human tumour cells (NCI), 48 h
[1] = test system: 786-0
[2] = test system: A498
[3] = test system: A549
[4] = test system: ACHN
[5] = test system: CAKI-1
[6] = test system: CCRF-CEM
[7] = test system: COLO 205
[8] = test system: DLD-1
[9] = test system: DMS-114
[10] = test system: DMS-273
[11] = test system: EKVX
[12] = test system: HCC 2998
[13] = test system: HCT-116
[14] = test system: HCT-15
[15] = test system: HL-60
[16] = test system: HOP-62
[17] = test system: HOP-92
[18] = test system: HT-29
[19] = test system: IGROV-1
[20] = test system: K562
[21] = test system: KM12
[22] = test system: LOX IMVI
[23] = test system: LXFL 529
[24] = test system: M14
[25] = test system: M19-MEL
[26] = test system: MOLT-4
[27] = test system: Malme-3M
[28] = test system: NCI-H23
[29] = test system: NCI-H460
[30] = test system: NCI-H522
[31] = test system: OVCAR-3
[32] = test system: OVCAR-4
[33] = test system: OVCAR-5
[34] = test system: OVCAR-8
[35] = test system: RPMI-8226
[36] = test system: RXF 393
[37] = test system: SF-268
[38] = test system: SF-295
[39] = test system: SF-539
[40] = test system: SK-MEL-28
[41] = test system: SK-MEL-2
[42] = test system: SK-MEL-5
[43] = test system: SK-OV-3
[44] = test system: SN12C
[45] = test system: SNB-19
[46] = test system: SNB-75
[47] = test system: SNB-78
[48] = test system: SW-620
[49] = test system: TK-10
[50] = test system: U-251
[51] = test system: UACC-257
[52] = test system: UACC-62
[53] = test system: UO-31
[54] = test system: KM-20L2
[55] = test system: NCI-H226
[56] = test system: SR

Measured: GI50

O=C1c2ccccc2C(=O)c2c(O)ccc(O)c21 [QUINIZARIN]
inactive: [1] > 100 µM | [2] > 100 µM | [3] 81.3 µM | [4] > 100 µM | [5] > 100 µM | [6] > 100 µM | [7] > 100 µM | [8] 61.9 µM | [9] > 100 µM | [10] > 100 µM | [11] 58.7 µM | [12] 81.1 µM | [13] > 100 µM | [15] > 100 µM | [16] > 100 µM | [17] > 100 µM | [18] 45.3 µM | [19] > 100 µM | [20] > 100 µM | [21] 60.5 µM | [22] > 100 µM | [23] > 100 µM | [24] > 100 µM | [25] 21.8 µM | [26] 52 µM | [27] > 100 µM | [28] > 100 µM | [29] 40.8 µM | [30] > 100 µM | [31] 29.2 µM | [32] > 100 µM | [33] > 100 µM | [34] > 100 µM | [35] 91 µM | [36] > 100 µM | [37] > 100 µM | [38] > 100 µM | [39] > 100 µM | [40] > 100 µM | [41] 79.8 µM | [42] 63.1 µM | [43] > 100 µM | [44] > 100 µM | [45] > 100 µM | [46] > 100 µM | [47] > 100 µM | [48] 93.8 µM | [49] > 100 µM | [50] > 100 µM | [51] > 100 µM | [52] > 100 µM | [53] 59 µM
> 100 µM: [14]

Cc1[nH]c(O)nc1C(=O)c1ccc(-n2ccnc2)cc1
inactive: [1] > 100 µM | [2] > 100 µM | [3] > 100 µM | [4] > 100 µM | [5] > 100 µM | [8] > 100 µM | [9] > 100 µM | [10] > 100 µM | [12] > 100 µM | [13] > 100 µM | [15] > 100 µM | [16] > 100 µM | [18] > 100 µM | [19] > 100 µM | [20] > 100 µM | [54] > 100 µM | [21] > 100 µM | [22] > 100 µM | [23] > 100 µM | [24] > 100 µM | [25] > 100 µM | [26] > 100 µM | [27] > 100 µM | [55] > 100 µM | [29] > 100 µM | [30] > 100 µM | [31] > 100 µM | [32] > 100 µM | [33] > 100 µM | [34] > 100 µM | [35] > 100 µM | [36] > 100 µM | [37] > 100 µM | [38] > 100 µM | [39] > 100 µM | [40] > 100 µM | [41] > 100 µM | [42] > 100 µM | [43] > 100 µM | [44] > 100 µM | [45] > 100 µM | [46] > 100 µM | [56] > 100 µM | [48] > 100 µM | [50] > 100 µM | [51] > 100 µM | [52] > 100 µM | [53] > 100 µM
> 100 µM: [14]

CN1C(=O)CN2C(Cl)(Cl)C2(c2ccccc2F)c2cc([N+](=O)[O-])ccc21 (stereo unspecified)
41.4 µM: [14]
inactive: [4] 41.5 µM | [5] > 100 µM | [6] 29 µM | [7] 52.1 µM | [8] 35.1 µM | [9] 42.8 µM | [10] 39.4 µM | [11] 30.4 µM | [12] 22.7 µM | [13] 31.7 µM | [16] > 100 µM | [17] 19.3 µM | [18] 39.1 µM | [19] 63.8 µM | [20] 36.8 µM | [54] 26.7 µM | [21] 38.7 µM | [22] 35.7 µM | [23] 58.1 µM | [24] > 100 µM | [25] 65.6 µM | [26] 17.3 µM | [27] 18.4 µM | [55] 16.2 µM | [28] 76 µM | [29] 33.2 µM | [30] > 100 µM | [31] > 100 µM | [32] > 100 µM | [33] > 100 µM | [34] > 100 µM | [35] 40.8 µM | [36] 14.6 µM | [37] 51.1 µM | [38] 80.4 µM | [40] > 100 µM | [41] 38.2 µM | [42] 26.8 µM | [43] > 10 µM | [44] 25.2 µM | [46] 17.5 µM | [56] 33 µM | [48] 69 µM | [49] 60.7 µM | [50] 57.1 µM | [51] 64.4 µM | [52] 28.6 µM | [53] 42.7 µM
